“And” between values parts separate entries of the source, which are not always exact repeats. Equal entries are not always repeated.

The experiment deals with T1, human GCGR (Homo sapiens, UniProt P47871).
T1 construct: expressed in transfected cells; host or cells: HEK293 (hGluc-1HEK), pcDNA3.1, G418 selection
T1 sequence (P47871 26-477): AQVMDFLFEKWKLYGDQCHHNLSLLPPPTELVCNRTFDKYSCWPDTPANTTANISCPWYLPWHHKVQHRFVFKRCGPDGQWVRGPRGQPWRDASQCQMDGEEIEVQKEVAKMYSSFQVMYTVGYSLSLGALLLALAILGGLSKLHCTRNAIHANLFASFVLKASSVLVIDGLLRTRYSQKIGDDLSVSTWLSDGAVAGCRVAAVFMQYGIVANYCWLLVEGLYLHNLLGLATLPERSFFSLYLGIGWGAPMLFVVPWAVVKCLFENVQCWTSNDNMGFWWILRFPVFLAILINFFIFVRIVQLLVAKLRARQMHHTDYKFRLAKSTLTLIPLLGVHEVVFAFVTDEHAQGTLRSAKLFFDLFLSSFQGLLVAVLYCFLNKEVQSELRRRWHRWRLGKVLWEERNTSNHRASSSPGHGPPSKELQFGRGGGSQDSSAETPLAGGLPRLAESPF
The experiment can be described thus: Cellular functional assay, cAMP readout (glucagon-stimulated cAMP, LANCE TR-FRET). The note with it: HEK293 cells stably expressing full-length human GCGR; glucagon 100 pM; IC50 converted to Ki; read-out: Inhibition of cAMP Ki. The class given is cell-based. The method, then: IC50 Values in Cellular Functional Assays: cAMP Readout
Full-length human GCGR (Accession Number: NM000160) subcloned into pcDNA3.1 was stably transfected into HEK293 cells (hGluc-1HEK) and maintained under G418 selection (500 μg/mL). Cell cultures were maintained in DMEM/F12 media supplemented with 10% FBS and 1% GlutaMax™ Supplement (Available from ThermoFisher Scientific, catalog #35050061). Glucagon stimulated cAMP was quantified using LANCE technology as per manufacturer instructions. On the day of the experiment, spent media was removed and cells were washed with Hank's Buffered Saline solution (HBSS), and cells harvested with non-enzymatic cell dissociation solution, then washed once with HBSS. Cells were re-suspended in stimulation buffer at a concentration of 0.83×10^6 cells/ml and cAMP detection antibody was added. 6 μl/well of this solution was then dispensed in a 384 well plate (cell density 5000 cells/well). Test compound was serially diluted in DMSO and 50 nl were dispensed on top of the cell solution and allowed to incubate for 30 minutes. 6 μl of a 2× glucagon solution (final concentration in assay 100 pM) was then added and the reaction was terminated after 5 minutes with the addition of detection mix. The resulting mixture was incubated, protected from light for 1.5 h. cAMP levels were quantified by TR-FRET in an EnVision instrument against a known standard. IC50's were generated by using a non-linear regression macro driven in Excel and converted to Ki values.
On the technique in general: TR-FRET usually uses a lanthanide donor and a delayed reading to cut background.
Turning to `CC(C)CC(c1ccc(C(=O)NCCC(=O)O)cc1)n1ncc2cc(-c3ccc(F)cc3)ccc21` (stereo not drawn) [Compound #5], the inhibition constant Ki – broadly, the dissociation constant of the complex between target and ligand, obtained from inhibition or displacement – turned out to be 600 nM. As to `Cc1cc(C(F)(F)F)ccc1-c1ccc2nn(C(CCC(F)(F)F)c3ccc(C(=O)NCCC(=O)O)cc3)cc2c1` (stereo not drawn) [Compound #50, 3-[[4-[4,4,4-Trifluoro-1-[5-[2-methyl-4-(trifluoromethyl)phenyl]indazol-2-yl]butyl]benzoyl]amino]propanoic acid], the inhibition constant (Ki) was found to be 47 nM. To `Cc1c(-c2ccc(C(F)(F)F)c(Cl)c2)ccc2nn(C(CC(C)C)c3ccc(C(=O)NCCC(=O)O)cc3)cc12` (stereo not drawn) [Compound #149, 3-(4-(1-(5-(3-Chloro-4-(trifluoromethyl)phenyl)-4-methyl-2H-indazol-2-yl)-3-methylbutyl)benzamido)propanoic acid] belongs 70 nM; to `CC(C)CC(c1ccc(C(=O)NCCC(=O)O)cc1)n1ncc2cc(-c3cc4cc(F)ccc4s3)ccc21` (stereo not drawn) [compound 172], 260 nM; to `Cc1cc(Cl)ccc1-c1ccc2c(cnn2C(CC(C)C)c2ccc(C(=O)NCCC(=O)O)cc2)c1` (stereo not drawn) [Compound #39, 3-(4-(1-(5-(4-Chloro-2-methylphenyl)-1H-indazol-1-yl)-3-methylbutyl)benzamido)propanoic acid], 210 nM. To `Cc1cc(Cl)ccc1-c1ccc2nn(C(CCC3CCCCC3)c3ccc(C(=O)NCCC(=O)O)cc3)cc2c1` (stereo not drawn) [compound 247] belongs 37 nM; to `COc1c(-c2ccc(C(F)(F)F)cc2C)ccc2nn(C(CC(C)C)c3ccc(C(=O)NCCC(=O)O)nc3)cc12` (stereo not drawn) [Compound #236, 3-(5-(1-(4-Methoxy-5-(2-methyl-4-(trifluoromethyl)phenyl)-2H-indazol-2-yl)-3-methylbutyl)picolinamido)propanoic acid], 12 nM; to `Cc1cc(C(F)(F)F)ccc1-c1cc2cn(C(CC(C)C)c3ccc(C(=O)NCCC(=O)O)cc3)nc2cc1C` (stereo not drawn) [Compound #54, 3-[[4-[3-Methyl-1-[6-methyl-5-[2-methyl-4-(trifluoromethyl)phenyl]indazol-2-yl]butyl]benzoyl]amino]propanoic acid], 19 nM. As for `COc1ccc2cc(-c3ccc4nn(C(CC(C)C)c5ccc(C(=O)NCCC(=O)O)cc5)cc4c3)ccc2c1` (stereo not drawn) [compound 82], the Ki was above 1300 nM. To `O=C(O)CCNC(=O)c1ccc(C(CC2CCCC2)n2ncc3cc(-c4ccc(C(F)(F)F)cc4)ccc32)cc1` (stereo not drawn) [compound 208] belongs 175 nM; to `CC(C)CC(c1ccc(C(=O)NCCC(=O)O)cc1)n1ncc2cc(-c3ccccc3)ccc21` (stereo not drawn) [Compound #4], 1100 nM; to `CC(C)CC(c1ccc(C(=O)NCCC(=O)O)cc1)n1ncc2cc(-c3ccc(C(C)(C)C)cc3)ccc21` (stereo not drawn) [Compound #1, 3-(4-(1-(5-(4-(tert-Butyl)phenyl)-1H-indazol-1-yl)-3-methylbutyl)benzamido)propanoic acid], 90 nM and 159 nM. `COc1c(-c2ccc(C(F)(F)F)cc2C)ccc2c1cnn2C(CC(C)C)c1ccc(C(=O)NCCC(=O)O)cc1` (stereo not drawn) [Compound #29, 3-(4-(1-(4-Methoxy-5-(2-methyl-4-(trifluoromethyl)phenyl)-1H-indazol-1-yl)-3-methylbutyl)benzamido)propanoic acid]: the Ki is 60 nM. To `Cc1cc(C(F)(F)F)ccc1-c1cc2cnn(C(CC(C)C)c3ccc(C(=O)NCCC(=O)O)cc3)c2cc1Cl` (stereo not drawn) [Compound #261, 3-[[4-[1-[6-Chloro-5-[2-methyl-4-(trifluoromethyl)phenyl]indazol-1-yl]-3-methyl-butyl]benzoyl]amino]propanoic acid] belongs 105 nM; to `O=C(O)CCNC(=O)c1ccc(C(CCC(F)(F)F)n2cc3cc(-c4ccc(Cl)cc4Cl)ccc3n2)cc1` (stereo not drawn) [Compound #224, 3-[[4-[1-[5-(2,4-Dichlorophenyl)indazol-2-yl]-4,4,4-trifluorobutyl]benzoyl]amino]propanoic acid], 110 nM; to `Cc1cc(Cl)ccc1-c1ccc2nn(C(CC(C)(C)C)c3ccc(C(=O)NCCC(=O)O)nc3)cc2c1` (stereo not drawn) [compound 257], 26 nM.

As to `O=C(O)CCNC(=O)c1ccc(C(CCC(F)(F)F)n2cc3cc(-c4ccc(C(F)(F)F)cc4Cl)ccc3n2)cc1` (stereo not drawn) [Compound #16, 3-[[4-[1-[5-[2-Chloro-4-(trifluoromethyl)phenyl]indazol-2-yl]-4,4,4-trifluorobutyl]benzoyl]amino]propanoic acid], the Ki worked out at 65 nM. To `O=C(O)CCNC(=O)c1ccc(C(CC2CC2)n2cc3cc(-c4ccc(C(F)(F)F)cc4)ccc3n2)cc1` (stereo not drawn) [compound 139] belongs 200 nM. To `CC(C)C[C@H](c1ccc(C(=O)NCCC(=O)O)cc1)n1ncc2cc(-c3ccc(C(F)(F)F)cc3Cl)ccc21` [Compound #85, 3-[[4-[(1R)-1-[5-[2-Chloro-4-(trifluoromethyl)phenyl]indazol-1-yl]-3-methyl-butyl]benzoyl]amino]propanoic acid] belongs 1270 nM.

In the case of `Cc1ccc2sc(-c3ccc4c(cnn4C(CC(C)C)c4ccc(C(=O)NCCC(=O)O)cc4)c3)cc2c1` (stereo not drawn) [compound 230], the Ki came to 280 nM.

For the molecule `CC(C)CC(c1ccc(C(=O)NCCC(=O)O)cc1)n1ncc2cc(-c3cnc4ccccc4c3)ccc21` (stereo not drawn) [compound 46], the Ki stood at 750 nM. Next, `CC(C)(C)CC(c1ccc(C(=O)NCCC(=O)O)cc1)n1ncc2cc(-c3ccc(C(F)(F)F)cc3)ccc21` (stereo not drawn) [compound 231]: 95 nM.

Regarding `Cc1cc2c(cnn2C(CC(C)C)c2ccc(C(=O)NCCC(=O)O)cc2)cc1-c1cc2ccccc2s1` (stereo not drawn) [Compound #174, 3-[[4-[1-[5-(Benzothiophen-2-yl)-6-methyl-indazol-1-yl]-3-methyl-butyl]benzoyl]amino]propanoic acid], the Ki is 190 nM. To `Cc1cc(C(F)(F)F)ccc1-c1ccc2nn(C(CC(C)C)c3ccc(C(=O)NCCC(=O)O)nc3)cc2c1` (stereo not drawn) [Compound #19] belongs 47 nM and 49 nM; to `CC(C)(C)CC(c1ccc(C(=O)NCCC(=O)O)nc1)n1ncc2cc(-c3ccc(C(F)(F)F)cc3)ccc21` (stereo not drawn) [compound 237], 160 nM. Take `Cc1cc2c(cnn2[C@H](CC(C)C)c2ccc(C(=O)NCCC(=O)O)cc2)cc1-c1ccc(C(F)(F)F)cc1` [Compound #229, 3-[[4-[(1R)-3-Methyl-1-[6-methyl-5-[4-(trifluoromethyl)phenyl]indazol-1-yl]butyl]benzoyl]amino]propanoic acid]: the Ki worked out at 1550 nM. Regarding `CC(C)CC(c1ccc(C(=O)NCCC(=O)O)cc1)n1cc2cc(-c3ccc(Cl)cc3Cl)ccc2n1` (stereo not drawn) [Compound #226, 3-(4-(1-(5-(2,4-Dichlorophenyl)-2H-indazol-2-yl)-3-methylbutyl)benzamido)propanoic acid], the inhibitory constant (Ki) came out at 242 nM. Next, `Cc1cc(Cl)ccc1-c1ccc2nn(C(CC(C)C)c3ccc(C(=O)NCCC(=O)O)nc3)cc2c1` (stereo not drawn) [Compound #252, 3-(5-(1-(5-(4-Chloro-2-methylphenyl)-2H-indazol-2-yl)-3-methylbutyl)picolinamido)propanoic acid]: 271 nM; `Cc1c(-c2ccc(C(F)(F)F)cc2Cl)ccc2nn(C(CC(C)C)c3ccc(C(=O)NCCC(=O)O)nc3)cc12` (stereo not drawn) [Compound #154, 3-(5-(1-(5-(2-Chloro-4-(trifluoromethyl)phenyl)-4-methyl-2H-indazol-2-yl)-3-methylbutyl)picolinamido)propanoic acid]: 13 nM; `Cc1ccc(-c2ccc3nn(C(CC(C)C)c4ccc(C(=O)NCCC(=O)O)cc4)cc3c2C)c(Cl)c1` (stereo not drawn) [Compound #148, 3-(4-(1-(5-(2-Chloro-4-methylphenyl)-4-methyl-2H-indazol-2-yl)-3-methylbutyl)benzamido)propanoic acid]: 57 nM.

For the molecule `Cc1cc(Cl)ccc1-c1ccc2nn(C(CCC(F)(F)F)c3ccc(C(=O)NCCC(=O)O)cc3)cc2c1` (stereo not drawn) [Compound #8, 3-[[4-[1-[5-(4-Chloro-2-methyl-phenyl)indazol-2-yl]-4,4,4-trifluorobutyl]benzoyl]amino]propanoic acid], the Ki came out at 59 nM. For the molecule `CC(C)CC(c1ccc(C(=O)NCCC(=O)O)nc1)n1cc2cc(-c3ccc(C(C)(C)C)cc3)ccc2n1` (stereo not drawn) [Compound #2], the inhibition constant (Ki) was determined as 700 nM.

In the case of `CC(c1ccc(C(=O)NCCC(=O)O)cc1)n1cc2cc(-c3ccc(C(C)(C)C)cc3)ccc2n1` (stereo not drawn) [Compound #161, 3-(4-(1-(5-(4-(tert-butyl)phenyl)-2H-indazol-2-yl)ethyl)benzamido) propanoic acid], the Ki came out at 3200 nM. To `CCCCCCC(c1ccc(C(=O)NCCC(=O)O)nc1)n1ncc2cc(-c3ccc(Cl)cc3C)ccc21` (stereo not drawn) [compound 244] belongs 200 nM. Consider `O=C(O)CCNC(=O)c1ccc(C(c2ccc(C(F)(F)F)cc2)n2cc3cc(-c4ccc(C(F)(F)F)cc4)ccc3n2)cc1` (stereo not drawn) [Compound #66, 3-(4-((4-(Trifluoromethyl)phenyl)(5-(4-(trifluoromethyl)phenyl)-2H-indazol-2-yl)methyl)benzamido)propanoic acid], for which the Ki came out at 600 nM.

`Cc1ccc(-c2ccc3c(cnn3C(CC(C)C)c3ccc(C(=O)NCCC(=O)O)cc3)c2C)c(C)c1` (stereo not drawn) [Compound #177, 3-(4-(1-(5-(2,4-Dimethylphenyl)-4-methyl-1H-indazol-1-yl)-3-methylbutyl)benzamido)propanoic acid]: the Ki was 485 nM.

The record behind these values is patent publication US10000473B2, “Indazole derivatives useful as glucagon receptor antagonists” (Janssen Pharmaceutica NV, priority 2016, dated 2018).
